Consider four molecules from article PMC3928712 (ACS chemical biology, 2013).

By IC50 is commonly meant the point on the concentration scale where inhibition reaches its midpoint.

The assay has as its target 2009 pandemic H1N1 (pH1N1) PAN endonuclease (Influenza A virus, UniProt C3W5S0). To be noted: for improvement in inhibitory activity compared to 2: relative to compound 2.

Structures are written as SMILES.

For the setting “enzymatic assay, PAN endonuclease”, `O=c1[nH]cc(Br)cc1O` [Compound 2] showed an IC50 of 16 µM. Turning to `N#Cc1cccc(-c2c[nH]c(=O)c(O)c2)c1` [Compound 3], the “improvement in inhibitory activity compared to 2” value is 20 fold. Turning to `O=c1[nH]c(-c2ccccc2)ccc1O` [Compound 4], the “improvement in inhibitory activity compared to 2” value came out at 40 fold. For the molecule `O=c1[nH]c(-c2ccc(F)cc2)c(-c2ccc(F)cc2)cc1O` [Compound 6], the “improvement in inhibitory activity compared to 2” value stood at 400 fold.
